Structures are written as SMILES.

This passage reports IC50 results from patent publication US9340507B2, “Substituted 4-pyridones and their use as inhibitors of neutrophil elastase activity” (Boehringer Ingelheim International GmbH, priority 2012, dated 2016).

Sequence of Human neutrophil elastase (P08246 30-267): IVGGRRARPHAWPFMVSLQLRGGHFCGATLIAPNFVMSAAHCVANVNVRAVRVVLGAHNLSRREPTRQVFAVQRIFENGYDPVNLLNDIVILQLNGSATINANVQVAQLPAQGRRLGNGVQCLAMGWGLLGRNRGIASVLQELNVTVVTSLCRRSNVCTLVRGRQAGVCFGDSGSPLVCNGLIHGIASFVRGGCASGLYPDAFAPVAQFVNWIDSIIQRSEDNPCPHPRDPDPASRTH

This experiment concerns the target Human neutrophil elastase (Homo sapiens (Human), UniProt P08246). In words: Human Neutrophil Elastase Assay. It counts as biochemical. Conditions: substrate MeOSuc-Ala-Ala-Pro-Val-AMC 250 μM, pH 7.5, fluorescence. The procedure: Human Neutrophil Elastase Assay
All other materials were of the highest grade commercially available.
The following buffers were used: Compound buffer: 100 mM Tris, 500 mM NaCl, adjusted to pH 7.5; Assay buffer: 100 mM Tris, 500 mM NaCl, adjusted to pH 7.5, containing 0.01% BSA.
Assay conditions: Test compounds were prediluted in DMSO and subsequently in compound buffer (5% DMSO final). […] After inactivation of the enzyme, fluorescence intensities were measured at 380 nm excitation and 460 nm emission wavelengths.
Each plate contains wells with a high value control (DMSO+enzyme+substrate) and wells with a low value control (DMSO+inactivated enzyme+substrate). IC50 values were estimated using a sigmoidal concentration response curve with variable slope. Means of low values were taken as 0%, means of high values as 100%. IC50 values of selected compound in the Neutrophil Elastase assay: […]
What is called IC50 is the concentration that gives 50% inhibition. Low readings indicate greater potency in that assay, high ones weaker potency in that assay. Compound `Cc1nnc(CNC(=O)c2cn(C3CCC3)c(C)c(-c3cccc(C(F)(F)F)c3)c2=O)o1` [Example 24.1, 1-Cyclobutyl-6-methyl-4-oxo-5-(3-trifluoromethyl-phenyl)-1,4-dihydro-pyridine-3-carboxylic acid (5-methyl-[1,3,4]oxadiazol-2-ylmethyl)-amide] came in with a half-inhibitory concentration (IC50) of 0.057 µM.
The compound `Cc1nnc(CNC(=O)c2cn(C3CCC3)c(C)c(-c3cccc(C(F)F)c3)c2=O)o1` [Example 24.2, 1-Cyclobutyl-5-(3-difluoromethyl-phenyl)-6-methyl-4-oxo-1,4-dihydro-pyridine-3-carboxylic acid (5-methyl-[1,3,4]oxadiazol-2-ylmethyl)-amide] returned an IC50 of 0.055 µM.
The figure for `CC[C@@H](C)n1cc(C(=O)NCc2nnc(C)o2)c(=O)c(-c2cccc(C(F)(F)F)c2)c1C` [Example 25.1, (R)-1-sec-Butyl-6-methyl-4-oxo-5-(3-trifluoromethyl-phenyl)-1,4-dihydro-pyridine-3-carboxylic acid (5-methyl-[1,3,4]oxadiazol-2-ylmethyl)-amide] is 0.037 µM; for `CC[C@@H](C)n1cc(C(=O)NCc2nnc(C)o2)c(=O)c(-c2cccc(C(F)F)c2)c1C` [Example 25.2, (R)-1-sec-Butyl-5-(3-difluoromethyl-phenyl)-6-methyl-4-oxo-1,4-dihydro-pyridine-3-carboxylic acid (5-methyl-[1,3,4]oxadiazol-2-ylmethyl)-amide] it is 0.03 µM; for `CC[C@H](C)n1cc(C(=O)NCc2nnc(C)o2)c(=O)c(-c2cccc(C(F)F)c2)c1C` [Example 26, (S)-1-sec-Butyl-5-(3-difluoromethyl-phenyl)-6-methyl-4-oxo-1,4-dihydro-pyridine-3-carboxylic acid (5-methyl-[1,3,4]oxadiazol-2-ylmethyl)-amide] it is 0.022 µM.
The value for `Cc1c(-c2ccnc(C(F)(F)F)c2)c(=O)c(C(=O)NCc2ccc([S+](C)[O-])cc2)cn1C(C)C` (centres unmarked) [Example 27.2, 1-Isopropyl-2-methyl-4-oxo-2′-trifluoromethyl-1,4-dihydro-[3,4′]bipyridinyl-5-carboxylic acid 4-methanesulfinyl-benzylamide] was 0.051 µM; that for `Cc1cc(CNC(=O)c2cn(C(C)C)c(C)c(-c3cccc(C(F)(F)F)c3)c2=O)ccc1S(C)(=O)=O` [Example 28.1, 1-Isopropyl-6-methyl-4-oxo-5-(3-trifluoromethyl-phenyl)-1,4-dihydro-pyridine-3-carboxylic acid 4-methanesulfonyl-3-methyl-benzylamide] was 0.007 µM.
The value for `Cc1cc(CNC(=O)c2cn(C(C)C)c(C)c(-c3cccc(C(F)F)c3)c2=O)ccc1S(C)(=O)=O` [Example 28.2, 5-(3-Difluoromethyl-phenyl)-1-isopropyl-6-methyl-4-oxo-1,4-dihydro-pyridine-3-carboxylic acid 4-methanesulfonyl-3-methyl-benzylamide] was 0.006 µM.
The compound `Cc1cc(CNC(=O)c2cn(C(C)C)c(C)c(-c3ccnc(C(F)(F)F)c3)c2=O)ccc1S(C)(=O)=O` [Example 28.3, 1-Isopropyl-2-methyl-4-oxo-2′-trifluoromethyl-1,4-dihydro-[3,4]bipyridinyl-5-carboxylic acid 4-methanesulfonyl-3-methyl-benzylamide] returned an IC50 of 0.027 µM.
With `Cc1c(-c2cccc(C(F)(F)F)c2)c(=O)c(C(=O)NCc2ccc3c(c2)CCS3(=O)=O)cn1C(C)C` [Example 29.1, 1-Isopropyl-6-methyl-4-oxo-5-(3-trifluoromethyl-phenyl)-1,4-dihydro-pyridine-3-carboxylic acid (1,1-dioxo-2,3-dihydro-1H-1λ^6-benzo[b]thiophen-5-ylmethyl)-amide], half-maximal inhibition (IC50) was put at 0.004 µM.
The value for `Cc1c(-c2cccc(C(F)F)c2)c(=O)c(C(=O)NCc2ccc3c(c2)CCS3(=O)=O)cn1C(C)C` [Example 29.2, 5-(3-Difluoromethyl-phenyl)-1-isopropyl-6-methyl-4-oxo-1,4-dihydro-pyridine-3-carboxylic acid (1,1-dioxo-2,3-dihydro-1H-1λ^6-benzo[b]thiophen-5-ylmethyl)-amide] was 0.003 µM.
`Cc1c(-c2ccnc(C(F)(F)F)c2)c(=O)c(C(=O)NCc2ccc3c(c2)CCS3(=O)=O)cn1C(C)C` [Example 29.3, 1-Isopropyl-2-methyl-4-oxo-2′-trifluoromethyl-1,4-dihydro-[3,4]bipyridinyl-5-carboxylic acid (1,1-dioxo-2,3-dihydro-1H-1λ^6-benzo[b]thiophen-5-ylmethyl)-amide] showed an IC50 of 0.015 µM.
The figure for `CCS(=O)(=O)c1ccc(CNC(=O)c2cn(C(C)C)c(C)c(-c3cccc(C(F)(F)F)c3)c2=O)cc1` [Example 30.1, 1-Isopropyl-6-methyl-4-oxo-5-(3-trifluoromethyl-phenyl)-1,4-dihydro-pyridine-3-carboxylic acid 4-ethanesulfonyl-benzylamide] is 0.013 µM; for `CCc1c(-c2cccc(C(F)(F)F)c2)c(=O)c(C(=O)NCc2ccc(S(=O)(=O)CC)cc2)cn1C(C)C` [Example 30.2, 6-Ethyl-1-isopropyl-4-oxo-5-(3-trifluoromethyl-phenyl)-1,4-dihydro-pyridine-3-carboxylic acid 4-ethanesulfonyl-benzylamide] it is 0.011 µM.
The value for `Cc1c(-c2cccc(C(F)(F)F)c2)c(=O)c(C(=O)NCc2ccc(S(=O)(=O)C3CC3)cc2)cn1C(C)C` [Example 31, 1-Isopropyl-6-methyl-4-oxo-5-(3-trifluoromethyl-phenyl)-1,4-dihydro-pyridine-3-carboxylic acid 4-cyclopropanesulfonyl-benzylamide] was 0.0052 µM; that for `Cc1c(-c2cccc(C(F)(F)F)c2)c(=O)c(C(=O)NCc2ccc(S(C)(=O)=O)c(F)c2)cn1C(C)C` [Example 32, 1-Isopropyl-6-methyl-4-oxo-5-(3-trifluoromethyl-phenyl)-1,4-dihydro-pyridine-3-carboxylic acid 3-fluoro-4-methanesulfonyl-benzylamide] was 0.015 µM.
The figure for `Cc1c(-c2cccc(C(F)F)c2)c(=O)c(C(=O)NCc2ccc(S(C)(=O)=O)c(F)c2)cn1C(C)C` [Example 33, 5-(3-Difluoromethyl-phenyl)-1-isopropyl-6-methyl-4-oxo-1,4-dihydro-pyridine-3-carboxylic acid 3-fluoro-4-methanesulfonyl-benzylamide] is 0.016 µM.
`Cc1c(-c2cccc(C(F)(F)F)c2)c(=O)c(C(=O)NCc2ccc(S(C)(=O)=O)cc2F)cn1C(C)C` [Example 34, 1-Isopropyl-6-methyl-4-oxo-5-(3-trifluoromethyl-phenyl)-1,4-dihydro-pyridine-3-carboxylic acid 2-fluoro-4-methanesulfonyl-benzylamide]: the IC50 came out at 0.026 µM.
The value for `Cc1c(-c2cccc(C(F)F)c2)c(=O)c(C(=O)NCc2ccc(S(C)(=O)=O)cc2F)cn1C(C)C` [Example 35, 5-(3-Difluoromethyl-phenyl)-1-isopropyl-6-methyl-4-oxo-1,4-dihydro-pyridine-3-carboxylic acid 2-fluoro-4-methanesulfonyl-benzylamide] was 0.017 µM; that for `Cc1cc(S(C)(=O)=O)ccc1CNC(=O)c1cn(C(C)C)c(C)c(-c2cccc(C(F)(F)F)c2)c1=O` [Example 36, 1-Isopropyl-6-methyl-4-oxo-5-(3-trifluoromethyl-phenyl)-1,4-dihydro-pyridine-3-carboxylic acid 4-methanesulfonyl-2-methyl-benzylamide] was 0.019 µM.
Compound `Cc1cc(S(C)(=O)=O)ccc1CNC(=O)c1cn(C(C)C)c(C)c(-c2cccc(C(F)F)c2)c1=O` [Example 37, 5-(3-Difluoromethyl-phenyl)-1-isopropyl-6-methyl-4-oxo-1,4-dihydro-pyridine-3-carboxylic acid 4-methanesulfonyl-2-methyl-benzylamide] displayed an IC50 of 0.027 µM.
The value for `Cc1c(-c2cccc(C(F)(F)F)c2)c(=O)c(C(=O)NCc2cn3c(n2)S(=O)(=O)CC3)cn1C(C)C` [Example 38, 1-Isopropyl-6-methyl-4-oxo-5-(3-trifluoromethyl-phenyl)-1,4-dihydro-pyridine-3-carboxylic acid (1,1-dioxo-2,3-dihydro-1H-1λ^6-imidazo[2,1-b]thiazol-6-ylmethyl)-amide] was 0.0053 µM; that for `Cc1c(-c2cccc(C(F)F)c2)c(=O)c(C(=O)NCc2ccc(S(C)(=O)=O)s2)cn1C(C)C` [Example 40, 5-(3-Difluoromethyl-phenyl)-1-isopropyl-6-methyl-4-oxo-1,4-dihydro-pyridine-3-carboxylic acid (5-methanesulfonyl-thiophen-2-ylmethyl)-amide] was 0.031 µM; that for `COC[C@H](C)n1cc(C(=O)NCc2ccc(S(C)(=O)=O)cc2)c(=O)c(-c2cccc(C(F)F)c2)c1C` [Example 42, (S)-5-(3-Difluoromethyl-phenyl)-1-(2-methoxy-1-methyl-ethyl)-6-methyl-4-oxo-1,4-dihydro-pyridine-3-carboxylic acid 4-methanesulfonyl-benzylamide] was 0.0081 µM.
As for `COC[C@@H](C)n1cc(C(=O)NCc2ccc(S(C)(=O)=O)cc2)c(=O)c(-c2cccc(C(F)F)c2)c1C` [Example 44, (R)-5-(3-Difluoromethyl-phenyl)-1-(2-methoxy-1-methyl-ethyl)-6-methyl-4-oxo-1,4-dihydro-pyridine-3-carboxylic acid 4-methanesulfonyl-benzylamide], the concentration for half-maximal inhibition (IC50) stood at 0.045 µM.
`Cc1c(-c2cccc(C(F)(F)F)c2)c(=O)c(C(=O)NCc2ccc(S(C)(=O)=O)cc2)cn1CCF` [Example 45, 1-(2-Fluoro-ethyl)-6-methyl-4-oxo-5-(3-trifluoromethyl-phenyl)-1,4-dihydro-pyridine-3-carboxylic acid 4-methanesulfonyl-benzylamide]: it took 0.034 µM to reach half-maximal inhibition (IC50).
